The text below walks through data of patent US11279735B2, “Cyclic peptide antibiotics” (priority 2017, dated 2022).

≈ marks a conversion by molar mass, not a printed value. *1 amine or outer side, *2 acyl side, *3 side chain or, on linkers, in order; H or OH if unused. Where a SMILES comes first, the peptide text is derived from it. [ ]: non-standard residue; d: D form. The star is where a group is joined. X12 = C[C@H](CO[C@H](CC12CC3CC(CC(C3)C1)C2)[C@@H](C)C(=O)[*:2])N[*:1]; X16 = CCCCCC[C@@H](O[C@@H](C)CN[*:1])[C@@H](C)C(=O)[*:2]; X5 = CCCC[C@@H](OC[C@@H](C)N[*:1])[C@@H](CCCC)C(=O)[*:2]; X2 = CCCCCC[C@@H](OC[C@@H](C)N[*:1])[C@@H](C)C(=O)[*:2]; aThr = C[C@H](O)[C@H](N)C(=O)O; NMeL = CN[C@@H](CC(C)C)C(=O)O; Chg = N[C@H](C(=O)O)C1CCCCC1; NMeNva = CCC[C@H](NC)C(=O)O; Propyl(3-NMe2) = CN(C)CCC*; Dap = NC[C@H](N)C(=O)O; Propyl(3-NH2) = NCCC*; X11 = OC[C@H](O)C*; X10 = NCCCC*

In this assay the test system is Escherichia coli (E. coli) strain CFT073 ATCC 700928. The class given is cell-based. The settings on record: ATCC 700928, 22 h. A digest of the protocol:
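Broth microdilution MIC per CLSI M07-A8 in cation-adjusted Mueller Hinton II broth with 0.002% Tween-80. Ten-point 2-fold series topped at 64, 4, 0.5 or 0.13 μg/mL depending on protocol. Final inoculum OD600 0.0005, incubated 22 h at 35 °C.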
In the case of `CC(C)CCCCCC[C@H]1OC(=O)CNC(=O)[C@H]([C@H](C)O)NC(=O)[C@H](CN)NC(=O)[C@H](C2CCCCC2)NC(=O)[C@H](CC(C)C)N(C)C(=O)[C@@H]1C` [Example 65, (6S,9S,12S,15S,18R,19R)-9-(Aminomethyl)-12-cyclohexyl-6-((S)-1-hydroxyethyl)-15-isobutyl-16,18-dimethyl-19-(7-methyloctyl)-1-oxa-4,7,10,13,16-pentaazacyclononadecane-2,5,8,11,14,17-hexaone], the MIC is 0.78 µM (≈ 0.564 µg/mL).
As for `CCCC[C@H]1OC(=O)CNC(=O)[C@H]([C@H](C)O)NC(=O)[C@H](CN)NC(=O)[C@H](C2CCCCC2)NC(=O)[C@H](CC(C)C)N(C)C(=O)[C@@H]1CCCC` [Example 66, (6S,9S,12S,15S,18R,19R)-9-(Aminomethyl)-18,19-dibutyl-12-cyclohexyl-6-((S)-1-hydroxyethyl)-15-isobutyl-16-methyl-1-oxa-4,7,10,13,16-pentaazacyclononadecane-2,5,8,11,14,17-hexaone], the MIC turned out to be 1.3 µM (≈ 0.903 µg/mL).
`CCCCCC[C@H]1OC[C@@H](C)NC(=O)[C@H](COC[C@@H](O)CO)NC(=O)[C@H](CN)NC(=O)[C@H](C2CCCCC2)NC(=O)[C@H](CC(C)C)N(C)C(=O)[C@@H]1C` [Example 67, (3R,6S,9S,12S,15S,18R,19R)-9-(Aminomethyl)-12-cyclohexyl-6-(((S)-2,3-dihydroxypropoxy)methyl)-19-hexyl-15-isobutyl-3,16,18-trimethyl-1-oxa-4,7,10,13,16-pentaazacyclononadecane-5,8,11,14,17-pentaone] (cyclo([Chg][Dap]S(X11)[X2][NMeL])) had an MIC of 8.8 µM (≈ 6.52 µg/mL). This MIC is about 6.8-fold higher than that of the molecule before.
Turning to `CCCCCC[C@H]1OC(=O)CNC(=O)[C@H]([C@H](C)O)NC(=O)[C@H](CN)NC(=O)[C@H](C2CCCCC2)NC(=O)[C@H](CC(C)C)N(C)C(=O)[C@@H]1CC(F)(F)F` [Example 68, (6S,9S,12S,15S,18R,19R)-9-(Aminomethyl)-12-cyclohexyl-19-hexyl-6-((S)-1-hydroxyethyl)-15-isobutyl-16-methyl-18-(2,2,2-trifluoroethyl)-1-oxa-4,7,10,13,16-pentaazacyclononadecane-2,5,8,11,14,17-hexaone], the MIC was 3.1 µM (≈ 2.32 µg/mL).
The figure for `CCCCCC[C@H]1OC[C@@H](C)NC(=O)[C@H]([C@H](C)OCCCN)NC(=O)[C@H](CN)NC(=O)[C@H](C2CCCCC2)NC(=O)[C@H](CC(C)C)N(C)C(=O)[C@@H]1C` [Example 70, (3R,6S,9S,12S,15S,18R,19R)-9-(Aminomethyl)-6-((S)-1-(3-aminopropoxy)ethyl)-12-cyclohexyl-19-hexyl-15-isobutyl-3,16,18-trimethyl-1-oxa-4,7,10,13,16-pentaazacyclononadecane-5,8,11,14,17-pentaone] (cyclo([Chg][Dap][aThr](Propyl(3-NH2))[X2][NMeL])) is 15 µM (≈ 11.1 µg/mL); for `CCCCCC[C@H]1O[C@@H](C)CNC(=O)[C@H]([C@H](C)O)NC(=O)[C@H](CN)NC(=O)[C@H](C2CCCCC2)NC(=O)[C@H](CC(C)C)N(C)C(=O)[C@@H]1C` [Example 71, (2S,6S,9S,12S,15S,18R,19R)-9-(Aminomethyl)-12-cyclohexyl-19-hexyl-6-((S)-1-hydroxyethyl)-15-isobutyl-2,16,18-trimethyl-1-oxa-4,7,10,13,16-pentaazacyclononadecane-5,8,11,14,17-pentaone] (cyclo([Chg][Dap][aThr][X16][NMeL])) it is 12 µM (≈ 8.17 µg/mL).
For the molecule `CCCCCC[C@H]1OC(=O)CNC(=O)[C@H](CNC(=O)C2CNC2)NC(=O)[C@H](CN)NC(=O)[C@H](C2CCCCC2)NC(=O)[C@H](CC(C)C)N(C)C(=O)[C@@H]1C` [Example 72, N-(((6S,9S,12S,15S,18R,19R)-9-(Aminomethyl)-12-cyclohexyl-19-hexyl-15-isobutyl-16,18-dimethyl-2,5,8,11,14,17-hexaoxo-1-oxa-4,7,10,13,16-pentaazacyclononadecan-6-yl)methyl)azetidine-3-carboxamide], the MIC was 12 µM (≈ 8.99 µg/mL). This lies in the double-digit micromolar range.
Molecule `CCCCCC[C@H]1OC[C@@H](C)NC(=O)[C@H](COCCCCN)NC(=O)[C@H](CN)NC(=O)[C@H](C2CCCCC2)NC(=O)[C@H](CC(C)C)N(C)C(=O)[C@@H]1C` [Example 73, (3R,6S,9S,12S,15S,18R,19R)-6-((4-Aminobutoxy)methyl)-9-(aminomethyl)-12-cyclohexyl-19-hexyl-15-isobutyl-3,16,18-trimethyl-1-oxa-4,7,10,13,16-pentaazacyclononadecane-5,8,11,14,17-pentaone] (cyclo([Chg][Dap]S(X10)[X2][NMeL])) had an MIC of 6.3 µM (≈ 4.65 µg/mL).
`CC(C)C[C@H]1C(=O)N[C@@H](C2CCCCC2)C(=O)N[C@@H](CN)C(=O)N[C@@H]([C@H](C)O)C(=O)N[C@H](C)CO[C@H](CC23CC4CC(CC(C4)C2)C3)[C@@H](C)C(=O)N1C` [Example 74, (3R,6S,9S,12S,15S,18R,19R)-19-(((1r,3R,5S)-Adamantan-1-yl)methyl)-9-(aminomethyl)-12-cyclohexyl-6-((S)-1-hydroxyethyl)-15-isobutyl-3,16,18-trimethyl-1-oxa-4,7,10,13,16-pentaazacyclononadecane-5,8,11,14,17-pentaone] (cyclo([Chg][Dap][aThr][X12][NMeL])) yielded a minimum inhibitory concentration (MIC) of 1.6 µM (≈ 1.19 µg/mL).
Then `CC(C)C[C@H]1C(=O)N[C@@H](C2CCCCC2)C(=O)N[C@@H](CN)C(=O)N[C@@H](COCCCN)C(=O)NCC(=O)O[C@H](CCCCC(C)(C)C)[C@@H](C)C(=O)N1C` [Example 75, (6S,9S,12S,15S,18R,19R)-9-(Aminomethyl)-6-((3-aminopropoxy)methyl)-12-cyclohexyl-19-(5,5-dimethylhexyl)-15-isobutyl-16,18-dimethyl-1-oxa-4,7,10,13,16-pentaazacyclononadecane-2,5,8,11,14,17-hexaone], with 3.1 µM (≈ 2.33 µg/mL).
The figure for `CCCCCC[C@H]1OC[C@@H](C)NC(=O)[C@H](COc2ccc(CN)cc2)NC(=O)[C@H](CN)NC(=O)[C@H](C2CCCCC2)NC(=O)[C@H](CC(C)C)N(C)C(=O)[C@@H]1C` [Example 76, (3R,6S,9S,12S,15S,18R,19R)-9-(Aminomethyl)-6-((4-(aminomethyl)phenoxy)methyl)-12-cyclohexyl-19-hexyl-15-isobutyl-3,16,18-trimethyl-1-oxa-4,7,10,13,16-pentaazacyclononadecane-5,8,11,14,17-pentaone] is 6.3 µM (≈ 4.86 µg/mL).
Then `CCCC[C@H]1OC[C@@H](C)NC(=O)[C@H]([C@H](C)O)NC(=O)[C@H](CN)NC(=O)[C@H](C2CCCCC2)NC(=O)[C@H](CCC)N(C)C(=O)[C@@H]1CCCC` [Example 77, (3R,6S,9S,12S,15S,18R,19R)-9-(Aminomethyl)-18,19-dibutyl-12-cyclohexyl-6-((S)-1-hydroxyethyl)-3,16-dimethyl-15-propyl-1-oxa-4,7,10,13,16-pentaazacyclononadecane-5,8,11,14,17-pentaone] (cyclo([Chg][Dap][aThr][X5][NMeNva])), with 4.4 µM (≈ 3 µg/mL); and `CCCCCC[C@H]1OC[C@@H](C)NC(=O)[C@H](COCCCN(C)C)NC(=O)[C@H](CN)NC(=O)[C@H](C2CCCCC2)NC(=O)[C@H](CC(C)C)N(C)C(=O)[C@@H]1C` [Example 78, (3R,6S,9S,12S,15S,18R,19R)-9-(Aminomethyl)-12-cyclohexyl-6-((3-(dimethylamino)propoxy)methyl)-19-hexyl-15-isobutyl-3,16,18-trimethyl-1-oxa-4,7,10,13,16-pentaazacyclononadecane-5,8,11,14,17-pentaone] (cyclo([Chg][Dap]S(Propyl(3-NMe2))[X2][NMeL])), with 25 µM (≈ 18.8 µg/mL).

As a reminder, the MIC is the lowest concentration found to suppress growth. Low values mean a more susceptible organism, high ones a less susceptible organism.
